In article PMC12992715, “Dual interference with host neuropeptide signaling allows parasitoid wasp to hijack host sugar metabolism” (The EMBO Journal, 2025):
No end group written: not given here.

What was measured:
[1] = test system: PxsNPFR; test: Intracellular Ca2+ mobilisation (Fura-2/AM) in PxsNPFR-expressing HEK293 cells; type: cell-based, Plutella xylostella; settings: 2.5 μM Fura-2/AM, excitation 340/380 nm, 37 °C, result in words
Description: To establish a stable HEK293/PxsNPFR cell line, the pcDNA 3.1^(+)/PxsNPFR plasmid was transfected into the HEK293 cells using Lipofectamine 3000 (Invitrogen). Two days later, 800 μg/ml G418 (Sangon Biotech) was added to the culture medium to select cells that stably expressed the receptor. After three weeks, resistant clones were trypsinised in cloning cylinders and transferred to 12-well plastic plates for expansion.
To measure the intracellular calcium flux, the transfected cells HEK293/PxsNPFR were harvested with PBS solution containing 0.02% EDTA, rinsed twice with PBS, and resuspended in Hanks’ balanced salt solution containing 0.025% BSA. Cells were then loaded with 2.5 μM Fura-2/AM (Dojindo) for 30 min at 37 °C and washed twice in Hanks’ balanced saline solution. These cells were stimulated with the indicated concentrations of synthetic sNPF, and Hanks’ solution was used as a negative control. The calcium flux was measured using excitation at 340 nm and 380 nm on a SpectraMax iD5 Multi-Mode Microplate Reader (Molecular Devices) at 37 °C.

[2] = test system: PxGP, PxHK and PxTPS mRNA; test: qPCR of PxGP, PxHK, PxTPS in larvae injected with synthetic sNPF, venom, CvBV or teratocytes; type: in vivo, Plutella xylostella; settings: 0.5 ng synthetic peptide, larvae whole body, 4L; n = 7-8; words
Text: (§1) To analyse gene expression in different tissues, P. xylostella larvae were dissected under the microscope, followed by the collection of the silk gland, fat body, midgut, haemocytes and central nervous system (CNS, brain and ventral nerve cord). Haemocytes were collected on clean Parafilm membranes with capillaries by bleeding the larvae from a cut proleg. To explore gene expression at different instars of parasitised or non-parasitised larvae, non-parasitised larva was isolated individually using RNA-easy Isolation Reagent (Vazyme). Parasitoid larvae were removed before parasitised hosts were isolated. As for the measurement of other experiments, per larva with different treatments was isolated individually using RNA-easy Isolation Reagent according to the manufacturer’s instructions.
The quality and concentrations of total RNAs were estimated by electrophoresis and NanoDrop 2000 spectrophotometer (Thermo Fisher Scientific). First-strand cDNAs were synthesised using the ReverTra Ace qPCR RT kit (Toyobo) according to the manufacturer’s instructions. Both β-actin (GenBank Acc. No.: AB282645) and β-tubulin (GenBank Acc. No.: EU127912) of P. xylostella were used as internal controls. Primer sequences used for qPCR analysis are shown in Appendix Table S4. qPCR was performed by using THUNDERBIRD® SYBR qPCR Mix (Toyobo) on the CFX Connect real-time system (Bio-Rad). All qPCR assays were performed using four internal replicates and at least three biological replicates under the following conditions: 95 °C for 60 s and 40 cycles of 95 °C for 15 s and 60 °C for 30 s. Relative gene expression levels were calculated using the 2^−ΔΔCt method.
Microinjections were performed under a Stemi 2000C microscope (Zeiss) using glass capillary injection needles and an Eppendorf Femtojet (Eppendorf) with a microcontroller (Narishige). To confirm the function of bovine insulin on hosts, 1 μg bovine insulin (Sigma-Aldrich, I0305000) was injected into the middle 3rd instar P. xylostella larvae. To identify the effect of each parasitic factor on hosts, 0.05 FE CvBV or 0.05 VRE venom was injected into the abdomen of the middle 3rd instar P. xylostella larva (Wang et al, [2018]; Yu et al, [2007]). 1 TE teratocytes’ content was microinjected into the early 4th instar P. xylostella larvae. To confirm the function of each synthetic sNPF peptide, 0.005 ng, 0.05 ng, or 0.5 ng of each peptide was injected into the middle 3rd instar P. xylostella larvae in a volume of 0.1 μl/per larva once per day for 3 consecutive days.

[3] = test system: PxHK mRNA in the midgut; test: Ex vivo midgut incubation with sNPF and signalling inhibitors, PxHK mRNA; type: cell-based, Plutella xylostella; settings: Fig 6F
Description: The in vitro incubations of fat body or midgut were performed as previously described with minor modifications (Cheng et al, [2022]). The fat bodies and midguts from non-parasitised middle 4th instar P. xylostella larvae were collected in 0.5 mL of PBS. The collected tissues were then preincubated in culture dishes containing TNM-FH medium (HyClone) for 30 min. sNPF peptides or inhibitors were administered to isolated fat body and midgut in vitro using a modified method from a previous study (Oh et al, [2019]). 1 mM stock solution of pertussis toxin (PTX, Tocris Bioscience) or U73122 (MedChemExpress) was dissolved in DMSO (Sigma-Aldrich) and kept at −80 °C. 0.1 ng/µl PTX or 10 µM U73122 were then mixed with 20 µM sNPF-contained TNM-FH medium. Preincubated tissues were incubated in these mixtures at 25 °C for 1 h, followed by total RNA isolation and qPCR.

[4] = test system: P. xylostella fat body and midgut transcriptome; test: RNA sequencing of fat body and midgut after injection of sPxsNPF-1 or sCvsNPF; type: in vivo, Plutella xylostella
Description: The fat body and midgut of the 4 M instar P. xylostella larvae were dissected under the microscope in PBS on ice. Total RNA was isolated using an RNA isolater Total RNA Extraction Reagent (Vazyme) according to the manufacturer’s instructions. The quality and the concentration of the isolated total RNA were estimated by electrophoresis and a NanoDrop 2000. The transcriptome sequencing was performed at Annoroad Gene Technology. cDNA libraries for transcriptome sequencing made from the total RNA were prepared using the NEBNext Ultra RNA Library Prep Kit for Illumina in conjunction with the NEBNext Poly (A) mRNA Magnetic Isolation Module. Libraries were validated and quantified before being pooled and sequenced on an Illumina HiSeq 2000 (Illumina) sequencer with a 150 bp paired-end protocol. The raw reads were filtered by removing adaptor sequences, empty reads and low-quality sequences (reads with unknown sequences ‘N’). Sequences were de novo assembled using Trinity on a Galaxy Portal, and both ends were sequenced. The fragments per kilobase of transcript per million mapped reads (FPKM) method was used to analyse the expression profiles of all unigenes in different samples. Read counts were input into DESeq2 to calculate differential gene expression and statistical significance. […]

[5] = test system: PxsNPFR; test: qPCR of PxHK / PxGP upon synthetic sNPF with dsPxsNPFR treatment; type: in vivo, Plutella xylostella; settings: non-parasitised larvae, 3L, 0.5 ng sPxsNPF-1 + dsPxsNPFR; n = 6-7; words
Text: as §1
The quality and concentrations of total RNAs were estimated by electrophoresis and NanoDrop 2000 spectrophotometer (Thermo Fisher Scientific). […] Relative gene expression levels were calculated using the 2^−ΔΔCt method. […]
DNA fragments of ∼500 bp in size were amplified by PCR. […] Synthetic dsRNA was confirmed by an agarose gel, and the concentration was determined by NanoDrop2000 spectrophotometer (Thermo Scientific). About 500 ng of dsRNA was injected into P. xylostella larvae 72 h post-parasitisation, and the RNAi efficiency was detected 48 h post-injection by qPCR. […]

Substance: SVRSPSRRLRF-NH2 [sPxsNPF-1, synthetic short neuropeptide F-1 of Plutella xylostella]
- intracellular Ca2+ mobilisation [1]: elicited a rapid and transient increase in intracellular Ca^2+ mobilisation
- PxGP mRNA expression [2]: remained unaffected
- PxHK mRNA expression [2]: upregulated
- PxTPS mRNA expression [2]: remained unaffected
- PxHK relative expression ([3]; sPxsNPF-1+PTX, Average of 5 replicates, SD 0.30, control DMSO average 1.00): 1.96
- PxHK relative expression ([3]; sPxsNPF-1+PTX, replicate 1): 2.33
- PxHK relative expression ([3]; sPxsNPF-1+PTX, replicate 2): 1.83
- PxHK relative expression ([3]; sPxsNPF-1+PTX, replicate 3): 1.61
- PxHK relative expression ([3]; sPxsNPF-1+PTX, replicate 4): 1.83
- PxHK relative expression ([3]; sPxsNPF-1+PTX, replicate 5): 2.18
- PxHK relative expression ([3]; sPxsNPF-1+U73122, Average of 5 replicates, SD 0.13, control DMSO average 1.00): 0.98
- PxHK relative expression ([3]; sPxsNPF-1+U73122, replicate 1): 1.03
- PxHK relative expression ([3]; sPxsNPF-1+U73122, replicate 2): 0.92
- PxHK relative expression ([3]; sPxsNPF-1+U73122, replicate 3): 1.06
- PxHK relative expression ([3]; sPxsNPF-1+U73122, replicate 4): 0.79
- PxHK relative expression ([3]; sPxsNPF-1+U73122, replicate 5): 1.11
- PxHK relative expression ([3]; sPxsNPF-1 without inhibitor, Average of 5 replicates, SD 0.18, control DMSO average 1.00): 1.73
- PxHK relative expression ([3]; sPxsNPF-1 without inhibitor, replicate 1): 1.68
- PxHK relative expression ([3]; sPxsNPF-1 without inhibitor, replicate 2): 1.93
- PxHK relative expression ([3]; sPxsNPF-1 without inhibitor, replicate 3): 1.52
- PxHK relative expression ([3]; sPxsNPF-1 without inhibitor, replicate 4): 1.60
- PxHK relative expression ([3]; sPxsNPF-1 without inhibitor, replicate 5): 1.89
- DEGs common to sPxsNPF-1 and sCvsNPF sets ([4]; 157 transcripts in both sets): 3.6%
- expression of genes involved in Gq activation (PLC, IP3) ([4]; RNA-seq after injection, words): significantly upregulated after sPxsNPF-1 injection
- sNPF-induced PxHK expression after PxsNPFR knockdown [5]: abolished following dsPxsNPFR treatment
